Assay results as given in patent publication US20100144737A1, “METHODS FOR INHIBITING T HELPER CELL DIFFERENTIATION” (FibroGen, Inc., priority 2008, published 2010).

Columns and labels:
Naive T helper cells = assay: Secretion of pro-inflammatory cytokines (IFN-γ, TNF-α) from TCR-stimulated T helper cells, conditioned media; assay type: cell-based, human; conditions: seven days
Description: The effect of methods and compounds of the present invention on T helper cell secretion of pro-inflammatory cytokines was evaluated as follows. Naive T helper cells (AllCells LLC, Emeryville, Calif.) obtained from human cord blood were stimulated (i.e., T cell receptor (TCR) stimulation) by seeding into 96-well culture dishes coated with 5 μg/ml anti-CD3 antibody (clone UCHT1, R&D Systems, Minneapolis, Minn.) (Tanaka et.al. (1989) J Immunol 142:2791-2795.), and 5 μg/ml anti-CD28 antibody (clone ANC28.1/D10, Ancell Corporation, Bayport, Minn.), and cultured at 37° C., 5% CO2 in RPMI-1640 (Mediatech Inc., Herndon, Va.) containing 1% FBS, 1 U/ml penicillin-1 μg/ml streptomycin (Invitrogen Corporation, Carlsbad, Calif.), and 50 U/ml IL-2 (Roche Diagnostics Corporation, Indianapolis, Ind.). At the time of seeding, cells were cultured with media alone or with media containing 2 ng/ml IL-12 (R&D Systems, Minneapolis, Minn.) (to stimulate differentiation of the T helper cells into Th1 cells) and 10 μg/ml anti-IL4 antibody (R&D Systems, Minneapolis, Minn.) (to block differentiation of the T helper cells into Th2 cells). Compound A or 1% DMSO (Veh) was added to the existing media and the cells were cultured for an additional seven days. The conditioned media was then collected from the cell cultures and analyzed for interferon-gamma (IFN-γ) and tumor necrosis factor-alpha (TNF-α) levels using MS2400 Human Tissue Culture Cytokine Detection Kits (MesoScale Technologies, Gaithersburg, Md.) according to the manufacturer's instructions. In another series of experiments, the effect of methods and compounds of the present invention on T helper cell secretion of pro-inflammatory cytokines was evaluated as follows. Naive T helper cells were stimulated substantially as described above with the following modification: cell cultures contained 100 U/ml penicillin-100 U/ml streptomycin. Various compounds of the present invention or 1% DMSO (Veh) was added to the existing media and the cells were cultured for an additional six days. Following stimulation with IL-12, conditioned media was then collected from the cell cultures and analyzed for interferon-gamma (IFN-γ) levels using MS2400 Human Tissue Culture Cytokine Detection Kits (MesoScale Technologies, Gaithersburg, Md.) according to the manufacturer's instructions.

naïve CD4+T Cells = assay: T helper cell synthesis of pro-inflammatory (IFN-γ) and anti-inflammatory (IL-5) cytokines; assay type: cell-based, human; conditions: seven days
Description: To examine the effect of compounds and methods of the present invention on T helper cell synthesis of pro-inflammatory and anti-inflammatory cytokines, the following studies were performed. Human cord blood naive CD4+T Cells (AllCells LLC, Emeryville, Calif.) were stimulated (i.e., T cell receptor (TCR) stimulation) by seeding into 96-well culture dishes coated with 5 μg/ml anti-CD3 antibody (clone UCHT1, R&D Systems, Minneapolis, Minn.), and 5 μg/ml anti-CD28 antibody (clone ANC28.1/D10, Ancell Corporation, Bayport, Minn.), and cultured at 37° C., 5% CO2 in RPMI-1640 (Mediatech Inc., Hemdon, Va.) containing 1% FBS, 1 U/ml penicillin-1 μg/ml streptomycin (Invitrogen Corporation, Carlsbad, Calif.), and 50 U/ml IL-2 (Roche Diagnostics Corporation, Indianapolis, Ind.). At time of seeding, cells were treated according to one of the following conditions: 1) media alone (Con); 2) 10 ng/ml IL4, 10 μg/ml anti-IFN-γ antibody, and 10 μg/ml anti-IL-12 antibody (R&D Systems, Minneapolis, Minn.); or 3) 2 ng/ml IL-12 and 10 μg/ml anti-IL-4 antibody. […] The cell-conditioned media was collected and analyzed for IFN-γ levels (a pro-inflammatory cytokine) and IL-5 levels (an anti-inflammatory cytokine) using MS2400 Human Tissue Culture Kits (MesoScale Technologies, Gaithersburg, Md.) according to the manufacturer's instructions.

[1] = TCR-stimulated T helper cells with 2 ng/ml IL-12 and anti-IL4 antibody, vs IL-12 and vehicle
[2] = TCR-stimulated T helper cells, without IL-12 addition, vs vehicle

Cc1nc(C(=O)NCC(=O)O)c(O)c2ccc(Oc3ccccc3)cc12 [Compound A, [(4-Hydroxy-1-methyl-7-phenoxy-isoquinoline-3-carbonyl)-amino]-acetic acid]
IL-12-induced increase in IFN-γ levels (Naive T helper cells; [1]): inhibited the increase
IL-12-induced increase in TNF-α levels (Naive T helper cells; [1]): inhibited the increase
IFN-γ levels in the conditioned media (Naive T helper cells; [2]): reduction
TNF-α levels in the conditioned media (Naive T helper cells; [2]): reduction
IL-12-mediated increase in IFN-γ secretion (naïve CD4+T Cells; 2 ng/ml IL-12 and anti-IL-4 antibody): reduced the IL-12-mediated increase in IFN-γ secretion
IL-5 levels (naïve CD4+T Cells; 10 ng/ml IL4, anti-IFN-γ and anti-IL-12 antibody, vs IL-4 alone): increased IL-5 levels
